The values that follow come from ChEMBL document CHEMBL1165990, “Semi-synthetic analogues of thiostrepton delimit the critical nature of tail region modifications in the control of protein biosynthesis and antibacterial activity” (Bioorg Med Chem, 2010).

In series [1] the test system is Staphylococcus aureus. The series can be described thus: Antibacterial activity against Staphylococcus aureus ATCC 6338 by NCCLS method. The format is functional.
The subject of series [2] is Escherichia coli. Kind of series: Antibacterial activity against Escherichia coli assessed as inhibition of protein synthesis at 0.1 to 0.4 uM after 60 mins by luminescence assay. The format is functional, organism-based.
Series [3] relates to Escherichia coli. Kind of series: Antibacterial activity against Escherichia coli assessed as inhibition of protein synthesis after 60 mins by luminescence assay. The format is functional, organism-based.
Series [4] can be described thus: Aqueous solubility of the compound. Format: physicochemical. The settings on record: buffer.
In series [5] the test system is Escherichia coli. The series can be described thus: Antibacterial activity against Escherichia coli by NCCLS method. Format: functional.
Series [6] has as its system Bacillus subtilis. The series can be described thus: Antibacterial activity against Bacillus subtilis ATCC 6633 by NCCLS method. Format: functional.
The test system of series [7] is Staphylococcus aureus. Kind of series: Antibacterial activity against Staphylococcus aureus ATCC 6338 by disk diffusion assay. The format is functional.
In series [8] the test system is Bacillus subtilis. Kind of series: Antibacterial activity against Bacillus subtilis ATCC 6633 by disk diffusion assay. The format is functional. On the technique in general: In agar diffusion tests the substance spreads into inoculated agar from a disc or well.
Series [9] has as its system Escherichia coli. Kind of series: Antibacterial activity against Escherichia coli by disk diffusion assay. Format: functional.
Series [10] has as its system Escherichia coli. Kind of series: Antibacterial activity against Escherichia coli assessed as inhibition of protein synthesis at 0.01 to 0.96 uM after 60 mins by luminescence assay. Format: functional, organism-based.

The source made the active and inactive calls. The rule behind the calls is not given here. Bounds are passed on as bounds.

As a reminder, the MIC is the lowest concentration that inhibits growth of the organism. A higher MIC goes with weaker potency. `C=C(NC(=O)c1csc(C2=N[C@@H]3c4csc(n4)[C@H]4NC(=O)c5csc(n5)[C@H]([C@](C)(O)[C@H](C)O)NC(=O)[C@H]5CSC(=N5)/C(=C/C)NC(=O)[C@H]([C@@H](C)O)NC(=O)c5csc(n5)[C@]3(CC2)NC(=O)[C@H](C)NC(=O)C(=C)NC(=O)[C@H](C)NC(=O)[C@H]([C@@H](C)CC)N[C@@H]2C=Cc3c([C@H](C)O)cc(nc3[C@H]2O)C(=O)O[C@@H]4C)n1)C(=O)NC(CSCCS(=O)(=O)O)C(N)=O` (stereo partly drawn): the MIC with Staphylococcus aureus [1] is no more than 2 mg/L; against Escherichia coli [5], no less than 128 mg/L; against Bacillus subtilis [6] it was no more than 8 mg/L. Further, the inhibition entry with Escherichia coli [2] is “Active”. For the same molecule, the inhibition entry in the series on Escherichia coli [3] is “Dose-dependent effect”. The solubility result in series [4] is “Soluble”.
Consider `C=C(NC(=O)c1csc(C2=N[C@@H]3c4csc(n4)[C@H]4NC(=O)c5csc(n5)[C@H]([C@](C)(O)[C@H](C)O)NC(=O)[C@H]5CSC(=N5)/C(=C/C)NC(=O)[C@H]([C@@H](C)O)NC(=O)c5csc(n5)[C@]3(CC2)NC(=O)[C@H](C)NC(=O)C(=C)NC(=O)[C@H](C)NC(=O)[C@H]([C@@H](C)CC)N[C@@H]2C=Cc3c([C@H](C)O)cc(nc3[C@H]2O)C(=O)O[C@@H]4C)n1)C(=O)NC(CS[C@@H]1O[C@H](CO)[C@@H](O)[C@H](O)[C@H]1O)C(N)=O` (stereo partly drawn), for which the MIC in the series on Staphylococcus aureus [7], in the series on Bacillus subtilis [8] and in the series with Escherichia coli [9] was no less than 50 mg/L each time.
As for `C=C(NC(=O)c1csc(C2=N[C@@H]3c4csc(n4)[C@H]4NC(=O)c5csc(n5)[C@H]([C@](C)(O)[C@H](C)O)NC(=O)[C@H]5CSC(=N5)/C(=C/C)NC(=O)[C@H]([C@@H](C)O)NC(=O)c5csc(n5)[C@]3(CC2)NC(=O)[C@H](C)NC(=O)C(=C)NC(=O)[C@H](C)NC(=O)[C@H]([C@@H](C)CC)N[C@@H]2C=Cc3c([C@H](C)O)cc(nc3[C@H]2O)C(=O)O[C@@H]4C)n1)C(=O)NC(CSC[C@@H](C)C(=O)N1CCC[C@H]1C(=O)O)C(N)=O` (stereo in doubt; 3), the inhibition entry in the series on Escherichia coli [2] was “Active”.
For `C=C(NC(=O)c1csc(C2=N[C@@H]3c4csc(n4)[C@H]4NC(=O)c5csc(n5)[C@H]([C@](C)(O)[C@H](C)O)NC(=O)[C@H]5CSC(=N5)/C(=C/C)NC(=O)[C@H]([C@@H](C)O)NC(=O)c5csc(n5)[C@]3(CC2)NC(=O)[C@H](C)NC(=O)C(=C)NC(=O)[C@H](C)NC(=O)[C@H]([C@@H](C)CC)N[C@@H]2C=Cc3c([C@H](C)O)cc(nc3[C@H]2O)C(=O)O[C@@H]4C)n1)C(=O)NC(CSC[C@@H](C)C(=O)N1CCC[C@H]1C(=O)O)C(N)=O` (stereo in doubt; 4) [listing 1 of 2 here], the MIC in the series with Staphylococcus aureus [1] was no more than 32 mg/L; with Escherichia coli [5], no less than 128 mg/L; in the series on Bacillus subtilis [6], no more than 32 mg/L.
`C=C(NC(=O)c1csc(C2=N[C@@H]3c4csc(n4)[C@H]4NC(=O)c5csc(n5)[C@H]([C@](C)(O)[C@H](C)O)NC(=O)[C@H]5CSC(=N5)/C(=C/C)NC(=O)[C@H]([C@@H](C)O)NC(=O)c5csc(n5)[C@]3(CC2)NC(=O)[C@H](C)NC(=O)C(=C)NC(=O)[C@H](C)NC(=O)[C@H]([C@@H](C)CC)N[C@@H]2C=Cc3c([C@H](C)O)cc(nc3[C@H]2O)C(=O)O[C@@H]4C)n1)C(=O)NC(CSC[C@@H](C)C(=O)N1CCC[C@H]1C(=O)O)C(N)=O` (stereo in doubt; 4) [listing 2 of 2 here]: the inhibition entry in the series with Escherichia coli [2] was “Active”.
For `C=C(NC(=O)C(=C)NC(=O)c1csc(C2=N[C@@H]3c4csc(n4)[C@H]4NC(=O)c5csc(n5)[C@H]([C@](C)(O)[C@@H](C)O)NC(=O)[C@H]5CSC(=N5)/C(=C/C)NC(=O)[C@H]([C@@H](C)O)NC(=O)c5csc(n5)[C@]3(CC2)NC(=O)[C@H](C)NC(=O)C(=C)NC(=O)[C@H](C)NC(=O)[C@H]([C@@H](C)CC)N[C@@H]2C=Cc3c([C@H](C)O)cc(nc3[C@H]2O)C(=O)O[C@@H]4C)n1)C(N)=O` [THIOSTREPTON], the minimal inhibitory concentration (MIC) in the series with Staphylococcus aureus [1] was no more than 0.0625 mg/L; with Escherichia coli [5], no less than 32 mg/L; in the series with Bacillus subtilis [6], no more than 0.25 mg/L. Moreover, the inhibition result in the series with Escherichia coli [10] was “Active”.
